One test relates to MMP14. The test is described as follows: Assay of MMP14 activity (FRET peptide) in HT1080 cells treated with Naphthofluorescein. The class given is cell-based, human. The conditions noted are these: n=3, untreated cells 473.7±20.93. How it is done: Detection of Cy 3.5 signals of the MMP14 FRET peptide was performed using the FLUOstar OPTIMA BMG LABTECH 96 microplate fluorescence reader standardized for optic settings of excitation 544 nm and emission 590 nm, temperature settings at 37° C., with readings taken every 10 minutes over a 120 minute duration and double orbital shaking at a width of 4 mm 1 second prior to each cycle. All confocal live cell studies were performed using the Nikon Air inverted microscope (Tokyo, Japan) with live cell imaging chamber (designed by Monash Micro imaging). Tissue sections were obtained by cryo-sectioning frozen tissue using the Leica CM1950 cryostat (Leica Microsystems, Germany).
A peptide sequence that is preferentially cleaved by MMP14 was used to create a FRET probe with N terminal Cy3.5 and C terminal BHQ (Black Hole Quencher): Cy3.5 SGRIGFLRTACBHQ2 (SEQ ID NO:13). The presence of MMP14 activity cleaves this peptide and separates the Cy3.5 from BHQ. […] The cells were centrifuged at 4000 rcf for 5 minutes, cell pellet was resuspended in PBS containing calcium and magnesium and counted using a haemocytometer. […] The 96 well microplate was incubated at 37° C. inside the FluorSTAR Optima fluorescent microplate reader for 2 hours while Cy 3.5 signal readings in the (Ex544, Em590) channel were taken every 10 minutes. […] The readings were plotted as bar charts in Prism software. […]

A further test deals with unstable plaques. Briefly: In vivo treatment of tandem stenosis mice, plaque collagen quantification (Picrosirius Red). Also noted: species or system mouse. The note with it: tandem stenosis ApoE knock out mice, 2 tail vein injections 2 weeks apart, killed 2 weeks after second dose, PBS 14.40±4.522. How it is done:
As described elsewhere herein, at 12 weeks of age and 6 weeks after commencement of high fat diet, ApoE−/− mice (C57BL/6J background) were anaesthetized by intraperitoneal injection of a mixture of ketamine (100 mg/kg) and xylazine (10 mg/kg). An incision was made in the neck and the right common carotid artery exposed by dissecting away circumferential connective tissue. A tandem stenosis with 150 μm outer diameter was introduced with the distal stenosis placed 1 mm from the carotid artery bifurcation and the proximal stenosis 3 mm from the distal stenosis. A 6-0 blue braided polyester fibre suture was tied around the carotid artery and a 150 μm needle to achieve the stenosis diameter of 150 μm and the needle was subsequently removed after the suture was secured. The incision wound was sutured close and the mice resumed their high fat diet. […]
Collagen quantification of the Picrosirius Red slides were performed using Image J software (National Institute of Health USA). […] For each section, the quantity of plaque collagen is expressed as the percentage of collagen within the plaque: […]
All quantitative data was analysed by PRISM 6 (GraphPad Software Inc.) and reported as mean +/− one standard deviation. […] Unpaired t test with Welch's correction was also used to analyse the collagen quantification data for the mouse in vivo treatment experiments. […]

With `O=C1OC2(c3ccccc31)c1ccc3cc(O)ccc3c1Oc1c2ccc2cc(O)ccc12` [Naphthofluorescein], in the test on MMP14 (HT1080 cells treated with 20 μM unaltered free Naphthofluorescein for 1 week, time zero to 120 minutes), the “Cy3.5 increase (MMP14 FRET peptide)” value worked out at 125.0±17.04. Moreover, the “Cy3.5 increase (MMP14 FRET peptide), pH 5 rendered drug” value in the test on MMP14 (HT1080 cells, Naphthofluorescein pre-treated in HCl solution at pH 5 for 30 minutes then neutralised with NaOH) is reported as 126.7±2.728. Moreover, the “collagen percentage of the plaque area” value with unstable plaques was 18.87+5.308 percentage of the plaque area.
